Non-standard residues stand in square brackets, D forms with d. pGlu = O=C1CC[C@@H](C(=O)O)N1
Experiments:
Assay type in all cases: cell-based, human
PBMC [1] = experiment: IFN-gamma ELISpot of PBMC, Day-6 after gluten challenge (Example 1); settings: DQ2.5+ CD
whole blood [2] = experiment: 96-well plate whole blood multiplex cytokine release, IFNγ (MAGPIX bead assay, Example 2); settings: Day-6, n = 8
gluten-reactive T cells = experiment: Cytokine release assays taken together (IFNγ ELISpot, whole blood IFNγ and IP-10 release); settings: three cytokine release assays
Protocol: Gluten peptide solutions for addition to whole blood were arranged according to standardized templates in sterile 96-well U-bottom plates (30 μL/well). Plates were sealed with adhesive ELISA plate cover slips before the plastic lid was replaced and being frozen at −80° C. Whole blood assay (WBA) “medium” (1% DMSO in 90% PBS and 9% normal saline), mitogen (PHA-L, Sigma-Aldrich #L2769; St Louis Mo.) 100 μg/ml in WBA medium, and CEF diluted to 10 μg/ml in PBS with a final concentration of 1% DMSO were frozen separately in sterile cryovials. 96-well plates and cryovials with frozen incubation solutions were shipped on dry ice to the clinical site where blood was collected and incubations performed. Solutions were thawed at room temperature for 10 min just before being added to whole blood. 96-well plates were thawed while being centrifuged at 300 g to avoid surface condensation. A multi-channel pipette was used to efficiently transfer 25 μL of peptide solutions from the original 96-well plate to corresponding wells in a fresh sterile 96-well U-bottom plate. Once incubation solutions had been added, 225 μL of whole blood was added to each well and the plate transferred to incubate for 24 h at 37° C. 5% CO2. […] Individual peptides were incubated at a final assay concentration of 5 μM. Final concentrations of individual peptides assessed in P3 was 0.05-50 μg/mL, and in P14 and P13 pools 0.025-25 μM. The P71 pool was tested at between 0.005-10 μg/mL, the highest tested concentration being the maximal possible not exceeding 0.1% DMSO. Peptide pools, mitogen, and medium only were assessed in triplicate wells, and on Day-6 individual peptides were assessed in duplicate wells. Incubations were terminated after 24 h, and 96-well plates centrifuged at 300 g for 10 min. A total of approximately 90 to 120 μL of plasma was removed from each well taking care to avoid red cell contamination, and transferred into corresponding wells of two further 96-well plates (one with 30 μL/well and the residual in the second plate). Plasmas were frozen at −80° C. and later shipped on dry ice to the central lab where IP-10 and IFNγ multiplex bead assays were performed according to manufacturer's instructions using 25 μL plasma per well (Milliplex® MAP Human Cytokine/Chemokine Magnetic Bead Panel #HCYTOMAG-60k-02; EMD Millipore Corp., Billerica, Mass. 01821) and analysed with the Luminex® MAGPIX® System xPONENT® software (Luminex Corporation, Austin Tex. 78727). Plasma cytokine levels for each assay condition were expressed as the mean analyte concentration of each of the three replicate incubations. Laboratory staff were unaware of the arrangement of peptide solutions incubated with during assay setup and plate counting. […]

whole blood [3] = experiment: 96-well plate whole blood multiplex cytokine release, IP-10 (MAGPIX bead assay, Example 2); settings: for IP-10 WB MAGPIX % max Mean: Day-6, n = 10; for Percent of maximal response, IP-10: after oral gluten challenge
PBMC [4] = experiment: Overnight IFNγ ELISpot assay with fresh PBMC (Example 2); settings: Day-6, n = 5
Protocol: Ten HLA-DQ2.5+ adults with celiac disease diagnosed according to the National Institutes of Health Consensus Statement 2004 were enrolled (Table 7).^22 Subjects were required to have followed gluten-free diet for at least one year and without known gluten exposures within the previous two-months. […] Full inclusion and exclusion criteria are described in Table 8. Each of 3 consecutive days subjects consumed 3 cookies that were prepared from approximately 4.5 g wheat gluten, 3 g barley flour protein, and 1.5 g rye flour protein. Blood was collected before and six days after commencing the oral challenge. Blood was collected using a 21G butterfly needle directly into 10 mL lithium heparin tubes (BD Vacutainer® Heparin tube #367880) and QuantiFERON® NIL (0591-0205, Cellestis Ltd., Chadstone VIC 3148 Australia) and QuantiFERON® MITOGEN (0593-0201, Cellestis Ltd.).
Overnight IFNγ ELISpot assays (Human IFN-γ ELISpotPRO kit, transparent, ALP; Mabtech AB, #3420-2APT-10) were performed using PBMC freshly separated from heparinized blood diluted 1:1 in PBS with 2% fetal bovine serum (Stemcell Technologies #07905; Vancouver, BC, V5Z 1B3, Canada) overlaid on density gradient medium (Ficoll-Paque™ PLUS; GE Healthcare Lice Sciences #:17-1440-02) in SepMate™-50 tubes (Stemcell Technologies #15460). PBMC (8 million/mL) were resuspended in serum-free medium with gentamicin and phenol red (X-VIVO™15; Lonza, Walkersville Mass. 21793). PBMC (0.4 million/50 μL/well) and incubated with 50 μL 80% X-vivol5, 0.2% DMSO and 20% PBS in three triplicate wells (“medium only”), or with 50 μL PHA-L 20 μg/ml or peptide at 2× final concentration in 80% X-vivol5, 0.2% DMSO and 20% PBS. Peptide solutions to be added to individual ELISpot wells were prepared in 96-well U-bottom plates (60 μL/well) that were then sealed with adhesive ELISA plate cover slips before replacing the plastic lid and being frozen at −80° C. 96-well plates containing peptide solutions were thawed at room temperature for 10 min while being centrifuged at 300 g immediately prior to being added to ELISpot wells. Peptide pools and mitogen were assessed in triplicate wells, and individual peptides were assessed in duplicate wells. X-VIVO™15 (50 μL) was incubated with 80% X-vivol5, 0.2% DMSO and 20% PBS (50 μL) in triplicate wells (“no PBMC” control). A Zeiss automated ELISpot counter was used to determine spot forming units (SFU) per well (Zellnet Inc., Fort Lee, N.J. 07024). Laboratory staff were unaware of the arrangement of peptide solutions in ELISpot wells during assay setup and plate counting.

[5] = Peptide 2 re-synthesised by Pepscan, 10 μg/mL (5.45 μM)
[6] = individual peptides 5 μM, Peptide 2 = CSBio batch

## (pE)QPFPQPEQPFPWQP-amide ([pGlu]QPFPQPEQPFPWQP-NH2; SMILES NC(=O)CC[C@H](NC(=O)[C@H](Cc1c[nH]c2ccccc12)NC(=O)[C@@H]1CCCN1C(=O)[C@H](Cc1ccccc1)NC(=O)[C@@H]1CCCN1C(=O)[C@H](CCC(N)=O)NC(=O)[C@H](CCC(=O)O)NC(=O)[C@@H]1CCCN1C(=O)[C@H](CCC(N)=O)NC(=O)[C@@H]1CCCN1C(=O)[C@H](Cc1ccccc1)NC(=O)[C@@H]1CCCN1C(=O)[C@H](CCC(N)=O)NC(=O)[C@@H]1CCC(=O)N1)C(=O)N1CCC[C@H]1C(N)=O) [Peptide 2, CSBio and Pepscan batches tested separately]
PBMC [1]; Subject 1, 10 ug/ml
  Peptide-specific IFN-gamma ELISpot response: 0 spot forming units per 0.8 million PBMC
PBMC [1]; Subject 2, 10 ug/ml
  Peptide-specific IFN-gamma ELISpot response: 1 spot forming units per 0.8 million PBMC
PBMC [1]; Subject 3, 10 ug/ml
  Peptide-specific IFN-gamma ELISpot response: 2 spot forming units per 0.8 million PBMC
PBMC [1]; Subject 4, 10 ug/ml
  Peptide-specific IFN-gamma ELISpot response: 17 spot forming units per 0.8 million PBMC
PBMC [1]; Subject 5, 10 ug/ml
  Peptide-specific IFN-gamma ELISpot response: 0 spot forming units per 0.8 million PBMC
PBMC [1]; Subject 6, 10 ug/ml
  Peptide-specific IFN-gamma ELISpot response: 2 spot forming units per 0.8 million PBMC
PBMC [1]; Subject 7, 10 ug/ml
  Peptide-specific IFN-gamma ELISpot response: 2 spot forming units per 0.8 million PBMC
PBMC [1]; Subject 8, 10 ug/ml
  Peptide-specific IFN-gamma ELISpot response: 4 spot forming units per 0.8 million PBMC
PBMC [1]; Subject 9, 10 ug/ml
  Peptide-specific IFN-gamma ELISpot response: 1 spot forming units per 0.8 million PBMC
PBMC [1]; Subject 10, 10 ug/ml
  Peptide-specific IFN-gamma ELISpot response: 0 spot forming units per 0.8 million PBMC
Whole blood [2]; [5]
  IFNγ WB MAGPIX % max Mean: 27 % max
Whole blood [2]; [6]
  IFNγ WB MAGPIX % max Mean: 23 % max
gluten-reactive T cells
  activity as a fraction of that of Peptide 14: one-half to one-fifth
Whole blood [3]; [5]
  IP-10 WB MAGPIX % max Mean: 49 % max
Whole blood [3]; Subject 3, Max. 9492 pg/mL
  Percent of maximal response, IP-10: ≥ 100 % of max
Whole blood [3]; Subject 4, Max. 9463 pg/mL
  Percent of maximal response, IP-10: ≥ 100 % of max
Whole blood [3]; [6]
  IP-10 WB MAGPIX % max Mean: 43 % max
PBMC [4]; [5]
  IFNγ ELISpot % max Mean: 25 % max
PBMC [4]; [6]
  IFNγ ELISpot % max Mean: 19 % max

From patent publication US20170042991A1, “COMPOSITIONS COMPRISING GLUTEN PEPTIDES AND USES THEREOF” (ImmusanT, Inc., priority 2014, published 2017)
